Measured values reported in BindingDB's records for doi:10.1021/jm300847w (Amgen, 2012).

Test: Inhibition of PI3Kdelta in B-cells by proliferation assay

Row | Compound | IC50 [nM]
1 | Cc1cccc2nc(-c3ccccc3Cl)c(Cn3nc(C#N)c4c(N)ncnc43)nc12 | 2
2 | C[C@H](Nc1ncnc2nc[nH]c12)c1cc2cccc(Cl)c2nc1-c1cscn1 | 0.5
